The assay has as its system T. cruzi. The assay is described as follows: T. cruzi in vitro inhibition assay. The format is cell-based, Trypanosoma cruzi. The conditions noted are these: host cells NIH 3T3.

This note sets out measurements from paper PMC3612894 (Journal of medicinal chemistry, 2013).

`Cc1cc(Oc2cccc(Cn3ccnc3)c2)cc(C)c1Cl` [Compound 4c, 1-(3-(4-chloro-3,5-dimethylphenoxy)benzyl)-1H-imidazole]: the “selectivity over host cells” value is reported as “greater than 160 fold”.
Regarding `Clc1ccc(COc2cccc(Cn3ccnc3)c2)cc1` [Compound 4j, 1-(3-((4-chlorobenzyl)oxy)benzyl)-1H-imidazole], the “selectivity over host cells” value is “greater than 160 fold”.
